Measured values: patent publication US12576107B2, “Methods of treating chronic inflammatory diseases” (METIMEDI PHARMACEUTICALS CO., LTD., priority 2018, dated 2026)

What was measured:
[1] = system: hypoxia inducible factor-1α (HIF-1α); experiment: Liver fibrosis in vitro experiment, Western blot in LX-2 cells; type: cell-based; conditions: 2.5 mM, LX-2 cells (human hepatic stellate cell)
Method: Human Hepatic Stellate cell line, LX-2, was purchased from Sigma-Aldrich (St Louis, MO, USA). The LX-2 cells were maintained in DMEM containing 2% fetal bovine serum (Life Technologies, Gaithersburg, MD, USA), 100 IU/ml penicillin, and 100 μg/ml streptomycin (Welgene, Daegu, South Korea).
(§1) To prepare whole cell lysate, cells were lysed with lysis buffer (1% NP-40, 0.25% sodium deoxycholate, 150 mM NaCl, 1 mM EDTA, 1% Triton X-100, 50 mM Tris-HCl (pH 7.4), 10% Glycerol) with protease inhibitor cocktail (Roche, Basel, Switzerland) and phosphatase inhibitors (NA3VO4 1 mM, NaF 100 mM). Then, protein concentration was measured using the Bicinchoninic acid (BCA) assay kit (Thermo Scientific, Waltham, MA). Whole cell or nuclear lysates were transferred onto polyvinylidene fluoride membranes (Merck Millipore, Billerica, MA, USA). After blocking in 5% non-fat milk (Bio-Rad, Hercules, CA, USA) for 1 h, the membranes were incubated overnight at 4° C. with primary antibody diluted in TBST containing 100 mM Tris-HCl (pH 7.5), 1.5 M NaCl, and 0.5% Tween-20 obtained from Sigma-Aldrich, to which 5% BSA and 0.1% sodium azide (Sigma-Aldrich) had been added. Specific primary antibodies to HIF-1α (1:1000), HIF-2α (1:1000), LDH-A (1:1000), LDH-B (1:1000), TLR-4 (1:1000), NF-κB (1:1000), VEGF (1:1000), α-tubulin (1:1000), Actin (1:1000), and GAPDH (1:5000). […]

[2] = system: Indomethacin-induced Crohn's disease rats; experiment: Crohn's disease model, oral Indomethacin; type: in vivo, Sprague-Dawley (SD) rats; conditions: Four-week after treatment
Method: (§2) Animals. […] Six-week old male Sprague-Dawley (SD) rats were obtained from Samtako Co. (Osan, Gyeonggi-do, Republic of Korea) and bred under specific-pathogen-free (SPF) conditions. All animals were maintained in a 12-hour light/dark cycle at 22-25° C. with free access to food and water.
(§3) Agents and animal model. To induce Crohn's disease and colitis, Indomethacin was purchased from Sigma Chemical (St. Louis, Missouri, USA) and was dissolved in saline. […] Two models of inflammatory bowel disease were used. Crohn's disease was induced by oral administration of Indomethacin (7 mg/kg), and colitis was induced by subcutaneous injections of Indomethacin (7 mg/kg) daily at a 24 h intervals (FIGS. 40 and 42).
(§4) Histological analysis. The fixed flat-mounts were dehydrated in a graded series of ethanol and embedded in paraffin.

nuclear factor-kappa B = experiment: Immunocytochemistry of nuclear factor-kappa B in ARPE-19 cells; type: cell-based, Human; conditions: 2.5 mM, hypoxia
Method: (§5) Human retinal pigment epithelium cell line, ARPE-19, was purchased from American Type Culture Collection (Manassas, VA, USA). The ARPE-19 cells were maintained in RPMI1640 containing 10% fetal bovine serum (Life Technologies, Gaithersburg, MD, USA), 100 IU/ml penicillin, and 100 μg/ml streptomycin (Welgene, Daegu, South Korea).
(§6) ARPE-19 and SK-N-SH cells were fixed on bio-coated coverslips (BD bioscience, San Jose, CA, USA) by 4% PFA for 20 min and then incubated with the primary antibodies for 15 h. The primary antibodies were as follows: HIF-1a (1:300, BD Biosciences, San Jose, CA, USA); LDH-A (1:300, Santa Cruz Biotechnology, Santa Cruz, CA, USA); LDH-B (1:300, Santa Cruz Biotechnology, Santa Cruz, CA, USA); NF-κB (1:300, Santa Cruz Biotechnology, Santa Cruz, CA, USA); TLR-4 (1:300, Santa Cruz Biotechnology, Santa Cruz, CA, USA); apoE (1:200, Santa Cruz Biotechnology, Santa Cruz, CA, USA). After PBS wash, the cells were incubated with anti-mouse secondary biotinylated antibody (1:2000, Vector Laboratorie, Burlingame, CA, USA) and visualized with streptavidin conjugated to Fluorescein (Vector Laboratorie, Burlingame, CA, USA). […] Confocal fluorescence images were obtained with confocal laser scanning microscopy (LSCM, Nikon A1+, Tokyo, Japan) under a 60× oil immersion lens.

[3] = system: Indomethacin-induced colitis rats; experiment: Colitis model, subcutaneous Indomethacin; type: in vivo, Sprague-Dawley (SD) rats; conditions: Four-week after treatment
Method: as §2, §3, §4

Apolipoprotein E = experiment: Immunocytochemistry of drusen marker Apolipoprotein E in ARPE-19 cells; type: cell-based, Human; conditions: 2.5 mM, hypoxia
Method: as §5, §6

NF-κb = experiment: Western blot of NF-κb in the tissue of retinal pigment epithelium; type: in vivo, mice; conditions: 2.5 mM (so in the source)
Method: as §1, with “(1:5000). The next day, the membranes were washed with TBST and incubated for 2 h with anti-rabbit secondary antibody (1:10000). Immunoblots were developed using a western blot detection reagent (Abclone, Seoul, Korea) and exposed to x-ray film (Agfa, Leverkusen, Germany) according to the manufacturer's protocol.” for “(1:5000).”

hypoxia-mediated factors = experiment: Brain CID in vitro experiment, Western blot in SK-N-SH cells; type: cell-based; conditions: 2.5 mM; SK-N-SH cells (human neuroblastoma); normoxia and hypoxia
Method: as §5, with “Brain” for “retinal pigment epithelium”, “SK-N-SH,” for “ARPE-19,”, “SK-N-SH” for “ARPE-19”
as §1

lactate dehydrogenase A = experiment: Human endothelial cell in vitro experiment, Western blot in HUVEC; type: cell-based; conditions: 2.5 mM, human umbilical vein endothelial cells
Method: Human Umbilical Vein Endothelial cell line, HUVEC, was purchased from American Type Culture Collection (Manassas, VA, USA). The HUVEC cells were Endothelial Cell Growth Medium 2 maintained in Endothelial Cell Growth Medium 2 Supplement MIX (PromoCell, Heidelberg, Germany)
as §1

In the case of CC(O)C(=O)[O-].CC(O)C(=O)[O-].[Ca+2] (stereo not shown) [calcium lactate], the “hypoxia inducible factor-1α (HIF-1α), Western blot” value [1] is reported as “decreased”, the “transmural inflammation and linear ulceration in the intestinal tissues” value ([2]; 2 mg/kg daily subcutaneous) is reported as “clearly decreased” and the “morphology of intestinal tissues vs. normal control” value [2] is reported as “morphologically recovered”. For the same compound, the “inflammatory factor (nuclear factor-kappa B), immunocytochemistry” value (nuclear factor-kappa B) was “decreased”, the “Superficial ulceration, polyp, and inflammation in the intestinal tissues” value ([3]; 2 mg/kg daily subcutaneous) was “clearly decreased” and the “morphology of intestinal tissues vs. normal control” value [3] was “morphologically recovered”. The “drusen marker (Apolipoprotein E), immunocytochemistry” value (Apolipoprotein E) was “decreased”, the “inflammatory factor (NF-κb), Western blot” value (NF-κb) was “decreased” and the “hypoxia-mediated factors, Western blot” value (hypoxia-mediated factors) was “decreased”. For the same compound, the “hypoxia-mediated factors (lactate dehydrogenase A), Western blot” value (lactate dehydrogenase A) was “decreased”.
